Laboratory results published in patent US20080004272A1, “Compositions and methods for modulating gated ion channels” (PainCeptor Pharma Corporation, priority 2006, published 2008).
Like-named read-outs stand apart in the source and are kept apart here.

Assays:
formalin-induced pain = experiment: Formalin test, model of acute tonic pain; format: in vivo; settings: rat; for Effect on pain intensity (flinching or licking behaviors): s.c. 30 min prior to formalin injection; for ED50: sc, s.c. 30 min prior to formalin, licking and biting episodes in phase IIa, read-out: ED50, effective dose where the pain score is reduced by half
Experimental: Male Sprague-Dawley rats are housed together in groups of three animals under standard conditions with unrestricted access to food and water. All experiments are conducted according to the ethical guidelines for investigations of experimental pain in conscious animals (Zimmerman, 1983)
Assessment of formalin-induced flinching behavior in normal, uninjured rats (body weight 150-180 g) is made with the use of an Automated Nociception Analyser (University of California, San Diego, USA). Briefly, this involves placing a small C-shaped metal band (10 mm wide×27 mm long) on the hindpaw of the rat to be tested. The rats (four rats are included in each testing session) are then placed in a cylindrical plexiglass observation chamber (diameter 30.5 cm and height 15 cm) for 20 min for adaptation purposes prior to being administered drug or vehicle according to the experimental paradigm being followed. After adaptation, individual rats are then gently restrained and formalin (5% in saline, 50 μl, s.c.) is injected into the plantar surface of the hindpaw using a 27G needle. Rats are then returned to their separate observation chambers, each of which are in turn situated upon an enclosed detection device consisting of two electromagnetic coils designed to produce an electromagnetic field in which movement of the metal band could be detected. […] A sampling interval of 1 min is used and on the basis of the resulting response patterns 5 phases of nociceptive behaviour are identified and scored: first phase (P1; 0-5 min), interphase (Int; 6-15 min), second phase (P2; […]), phase 2A (P2A; 16-40 min) and phase 2B (P2B; 41-60 min).
Nociceptive behavior is also determined manually every 5 min by measuring the amount of time spent in each of four behavioral categories: 0, treatment of the injected hindpaw is indistinguishable from that of the contralateral paw; 1, the injected paw has little or no weight placed on it; 2, the injected paw is elevated and is not in contact with any surface; 3, the injected paw is licked, bitten, or shaken. A weighted nociceptive score, ranging from 0 to 3 is calculated by multiplying the time spent in each category by the category weight, summing these products, and dividing by the total time for each 5 min block of time. […] On the basis of the resulting response patterns, […] of nociceptive behavior are identified and scored: first phase (P1; 0-5 min), interphase (Int; 6-15 min), second phase (P2; […]), phase 2A (P2A; 16-40 min) and phase 2B (P2B; 41-60 min).
Statistical analysis is performed using the Prism™ 4.01 software package (GraphPad, San Diego, Calif., USA). The difference in response levels between treatment groups and control vehicle group is analyzed using an ANOVA followed by Bonferroni's method for post-hoc pair-wise comparisons. […]

ASIC1a = target: T1, ASIC1a (Homo sapiens, UniProt P78348); experiment: Two-electrode voltage clamp in Xenopus laevis oocytes (Xo), acid-induced currents; format: cell-based; design: expressed in transfected cells; host or cells: Xenopus laevis oocytes (nuclear microinjection of expression vector such as pcDNA3); settings: for inhibition at 50 µM: Xenopus oocytes, read-out: % inh. at 50 μM (Xo)
T1 sequence (P78348 1-528): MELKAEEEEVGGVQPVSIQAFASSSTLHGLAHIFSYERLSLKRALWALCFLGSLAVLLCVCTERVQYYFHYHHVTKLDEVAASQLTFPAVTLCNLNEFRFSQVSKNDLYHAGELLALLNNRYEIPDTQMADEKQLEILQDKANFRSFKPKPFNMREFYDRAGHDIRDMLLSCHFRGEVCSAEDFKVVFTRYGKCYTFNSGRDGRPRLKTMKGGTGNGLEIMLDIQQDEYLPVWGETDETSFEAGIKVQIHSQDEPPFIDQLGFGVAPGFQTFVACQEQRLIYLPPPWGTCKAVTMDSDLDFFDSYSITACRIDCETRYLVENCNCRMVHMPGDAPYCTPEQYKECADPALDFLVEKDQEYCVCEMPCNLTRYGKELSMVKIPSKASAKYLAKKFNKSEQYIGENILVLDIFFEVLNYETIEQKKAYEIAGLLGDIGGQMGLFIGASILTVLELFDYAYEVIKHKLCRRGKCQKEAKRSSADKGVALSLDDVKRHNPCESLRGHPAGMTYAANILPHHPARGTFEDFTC
Summary of the method: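 Defolliculated oocytes were nuclear-injected with channel cDNA and expressed for 2–4 days at 19 °C. Under two-electrode voltage clamp at room temperature, oocytes were superfused with pH 7.4 Ringer, and currents were evoked by switching to acidic MES Ringer (pH<7). Compound was present in both control and acidic solutions.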

| SMILES | Effect on pain intensity (flinching or licking behaviors) (formalin-induced pain) | ED50 (formalin-induced pain) | IC50 (ASIC1a) | inhibition at 50 µM (ASIC1a) | IC50 (ASIC1a; Xenopus laevis oocytes, three point dose-response, read-out: IC50, half maximal inhibition of the acid-evoked response in hASIC1a) |
| --- | --- | --- | --- | --- | --- |
| CN1CCc2c(-c3ccccc3)cc(C#N)c(N)c2C1 [Compound 203, 8-Amino-2-methyl-5-phenyl-1,2,3,4-tetrahydro-isoquinoline-7-carbonitrile] | dose-dependent reduction of the pain intensity | 6 mg/kg | 6.2 µM | > 70% | – |
| COc1ccc(F)cc1-c1cc(C#N)c(N)c2c1CCN(C)C2 [Compound 206, 8-Amino-5-(5-fluoro-2-methoxy-phenyl)-2-methyl-1,2,3,4-tetrahydro-isoquinoline-7-carbonitrile] | dose-dependent reduction of the pain intensity | 50 mg/kg | – | 50 to 70% | 34 µM |
